Measurements: BindingDB's records for doi:10.1021/jm00142a026 (1981)

Biological target: Beta-1/Beta-2/Beta-3 adrenergic receptor (Rattus norvegicus, UniProt P10608+P18090+P26255)
Experiment: Binding affinity against Beta adrenergic receptor using [3H]dihydroalprenolol radioligand in rat brain homogenate

Sequence of Beta-1/Beta-2/Beta-3 adrenergic receptor (P18090 whole entry): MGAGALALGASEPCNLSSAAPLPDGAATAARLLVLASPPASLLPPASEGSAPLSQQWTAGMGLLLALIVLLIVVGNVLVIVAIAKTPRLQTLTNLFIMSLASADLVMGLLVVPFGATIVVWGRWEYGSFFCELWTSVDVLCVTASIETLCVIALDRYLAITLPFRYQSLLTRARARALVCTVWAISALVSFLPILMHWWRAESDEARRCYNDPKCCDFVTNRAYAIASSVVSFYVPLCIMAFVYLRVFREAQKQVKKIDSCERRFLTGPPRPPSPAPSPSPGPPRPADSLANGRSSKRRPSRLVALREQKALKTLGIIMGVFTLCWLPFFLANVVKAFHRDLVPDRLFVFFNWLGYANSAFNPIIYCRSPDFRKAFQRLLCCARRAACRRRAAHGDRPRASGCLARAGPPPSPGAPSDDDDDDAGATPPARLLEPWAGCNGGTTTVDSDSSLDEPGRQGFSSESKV
Sequence of Beta-1/Beta-2/Beta-3 adrenergic receptor (P26255 whole entry): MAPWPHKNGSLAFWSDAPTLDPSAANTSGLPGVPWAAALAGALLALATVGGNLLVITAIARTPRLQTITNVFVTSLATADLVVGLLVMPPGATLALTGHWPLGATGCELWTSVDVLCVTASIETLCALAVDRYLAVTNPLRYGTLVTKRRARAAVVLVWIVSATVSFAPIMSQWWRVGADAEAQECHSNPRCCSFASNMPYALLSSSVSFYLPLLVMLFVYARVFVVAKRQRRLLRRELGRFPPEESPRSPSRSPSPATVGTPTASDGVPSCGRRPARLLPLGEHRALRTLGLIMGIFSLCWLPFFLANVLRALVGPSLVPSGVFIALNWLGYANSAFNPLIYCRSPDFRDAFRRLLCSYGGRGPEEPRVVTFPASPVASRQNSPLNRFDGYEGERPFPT
Sequence of Beta-1/Beta-2/Beta-3 adrenergic receptor (P10608 whole entry): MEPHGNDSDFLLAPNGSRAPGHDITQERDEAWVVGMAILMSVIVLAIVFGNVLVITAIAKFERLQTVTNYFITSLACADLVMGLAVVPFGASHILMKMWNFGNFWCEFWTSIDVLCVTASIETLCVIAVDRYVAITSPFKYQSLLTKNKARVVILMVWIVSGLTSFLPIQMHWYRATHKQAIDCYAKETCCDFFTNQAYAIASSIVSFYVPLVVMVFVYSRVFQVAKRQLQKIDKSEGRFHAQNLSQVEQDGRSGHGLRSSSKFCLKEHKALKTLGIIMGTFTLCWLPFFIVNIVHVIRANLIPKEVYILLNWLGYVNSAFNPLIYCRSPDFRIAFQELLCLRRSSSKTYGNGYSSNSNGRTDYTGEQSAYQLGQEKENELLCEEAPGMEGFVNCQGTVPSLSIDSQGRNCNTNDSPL

SMILES | IC50
NCC(c1ccc(O)c(O)c1)S(=O)(=O)O (configuration not stated) | 130 µM
CNCC(c1ccc(O)c(O)c1)S(=O)(=O)O (configuration not stated) | 110 µM
